PMC11351550, “Synthesis, Cytotoxicity and Antioxidant Activity Evaluation of Some Thiazolyl–Catechol Compounds” (Antioxidants, 2024)
Counter-ions that a name gives are not always drawn.

Experiments:
[1] = Total Antioxidant Capacity (TAC) assay; type: biochemical; conditions: 95 °C, 1.5 h, 695 nm
Experimental: (§1) The stock solutions of the reference antioxidants (ascorbic acid, Trolox, EDTA-Na2) and compounds 3a–j were prepared by dissolving the solid powders in DMSO, obtaining 2 mM stock solutions. Following this, an additional set of solutions (0.2 mM) for each compound was obtained by dilution with DMSO. Absorption spectra of the tested compounds covering the range from 400 nm to 800 nm were recorded, indicating no absorption peaks near the wavelengths employed in the experiments. All measurements in the presented assays were made against blank samples. To quantify the activity of the compounds 3a–j, for the antiradical assays (DPPH and ABTS) and ferrous ion chelation, IC50 was calculated using Equation (1), while for the electron transfer assays (TAC, RP, FRAP and CUPRAC), the reference number of mole equivalent activity for each compound was calculated using Equation (2). (1) radical scavenging (%)=control absorbance−sample absorbance/control absorbance×100 (2) equivalents of control=sample absorbance/control absorbance
The Total Antioxidant Capacity (TAC) assay was conducted following the methodology outlined in our previous publication, which was based on initial reports from the literature. A volume of 10 mL of the reagent (0.6 M H2SO4, 28 mM Na3PO4 and 4 mM (NH4)6Mo7O24) and 1000 µL of the compound and standard solutions dispensed from the 2 mM stock solutions were mixed in sealed glass test tubes and incubated in a water bath at 95 °C for 1.5 h. After cooling the test tubes to room temperature, 1000 µL of each solution was diluted with 1000 µL of water. The absorbance of the solutions was then measured at λ = 695 nm.

[2] = Reducing power (RP) assay; type: biochemical; conditions: 50 °C, 20 min, pH 6.6
Experimental: as §1
In the reducing power (RP) assay, the tested compounds performed the reduction of ferric ions from potassium ferricyanide, forming ferrocyanide, which gives a blue complex. The protocol followed is an adaptation of previously reported methodologies. In glass test tubes, 1000 µL of solutions containing compounds and standards measured from the 0.2 mM stock solutions were mixed with 400 µL of phosphate buffer (0.2 M, pH = 6.6) and 400 µL of K3[Fe(CN)6] solution (1% w/v). The tubes were sealed and incubated for 20 min in a water bath at 50 °C. After cooling to room temperature, 500 µL of trichloroacetic acid (10% w/w) was added to all test tubes The resulting mixtures were left for 0.5 h at room temperature. Subsequently, 250 µL of the resulting solutions were mixed with 140 µL of FeCl3 solution (0.1% w/v) and 1000 µL of distilled water, and the absorbance of the resulting solutions was determined at λ = 695 nm.

[3] = Ferrous ion chelation assay (ferrozine); type: biochemical; parameters: key: - represents negligible activity
Experimental: as §1
To evaluate the ability of compounds to chelate ferrous ions, an assay was performed using an adaptation of Dinis et al.’s initial report. The solutions of the tested compounds (2 mM) were mixed well with 500 µL of FeSO4 (0.125 mM), and 500 µL of ferrozine 0.315 mM. After 10 min, the absorbance of the samples was determined spectrophotometrically at λ = 562 nm. EDTA-Na2 was used as a positive control, due to its exceptional ion chelation properties.

[4] = ABTS radical cation decolorization assay; type: biochemical; conditions: 10 min, pH 7.4, 734 nm; read-out: IC50 against ABTS•+
Experimental: as §1
The decolorization assay of the green ABTS^•+ (2,2′-azinobis-(3-ethylbenzothiazoline-6-sulfonic acid) to ABTS, based on the report of Re et al., was conducted following our group’s published report. The chemical stability of the ABTS^•+ reagent prior to use was checked at λ = 734 nm over one hour, ensuring a consistent absorption (approximately equal to 0.7). The reagent was prepared in potassium phosphate buffer (0.1 M, pH = 7.4) and activated overnight using MnO2 [17]. In all cuvettes, we added 100 μL of the tested compound solutions (0.2 mM) in increasing concentrations up to 200 µL and 2000 µL of the ABTS^•+ reagent. The resulting mixtures were thoroughly shaken for 10 min at room temperature, in the absence of light. The optical absorbance of the resulting mixtures was then measured by spectrophotometry at λ = 734 nm.

[5] = DPPH radical-scavenging assay; type: biochemical; conditions: 30 min in the dark, 517 nm; read-out: IC50 against DPPH•
Experimental: as §1
The DPPH˙ (2,2-diphenyl-1-picrylhydrazyl) radical-scavenging assay, initially reported by Brand-Williams et al., relies on transferring a hydrogen atom from the antioxidant substrate being analyzed to the stable violet radical of DPPH˙. This action converts DPPH˙ into a nonradical stable yellow compound. The reduction in absorbance of the DPPH˙ at λ = 517 nm corresponds to the quantity of neutralized reagent. To perform the DPPH assay, we took 50, 75, 100, 125, and 150 µL of each sample from their 0.2 mM stock solutions, then we adjusted the volumes with DMSO to ensure all samples reached a uniform final volume. These solutions were mixed with 1 mL of DPPH reagent and incubated in the dark for 30 min, as presented in literature reports.

[6] = Ferric-Reducing Antioxidant Potential (FRAP) assay; type: biochemical; conditions: pH 3.6, 593 nm
Experimental: as §1
The Ferric-Reducing Antioxidant Potential (FRAP) assay relies on the transfer of an electron from the antioxidant being assessed to Fe^3+, resulting in its conversion to Fe^2+. The resulting Fe^2+ ions are then chelated by 2,4,6-tripyridyl-s-triazine, giving a blue-colored complex, with an absorption maximum at λ = 593 nm. A 500 µL amount of the solutions (0.2 mM) of compounds and reference compounds was mixed with 600 µL FRAP reagent and 1200 µL acetate buffer (0.3 M, pH = 3.6), according to previous reports. The resulting solutions were mixed well in the dark, and their absorbance was measured spectrophotometrically.

[7] = test system: human pulmonary malignant cells (A549); assay: Alamar Blue cytotoxicity assay, A549 cells; type: cell-based; conditions: for IC50: Homo sapiens, A549, 48 h exposure, Alamar Blue, read-out: IC50 (±SD) A549; for Selectivity Index: ratio between the calculated IC50 on BJ and A549 cells, 48 h
Experimental: (§2) BJ cells were maintained in Dulbecco’s modified Eagle’s medium (DMEM) with low glucose (1 g/L), while the A549 cells were seeded in DMEM with high glucose (5 g/L). All media were supplemented with 10% fetal bovine serum (FBS) and 1% Penicillin/Streptomycin. […] Cellular media were refreshed every other day. Cells were either subcultured or used in experiments once they reached a confluency of 80–90%.
(§3) The cytotoxicity of the synthesized compounds was evaluated by Alamar Blue (AB) assays performed on both cell lines, A549 and BJ, after a 48 h exposure, as previously reported.
(§4) Briefly, approximately 7000 A549 cells and 4000 normal BJ cells were seeded in 100 µL cellular media in 96-well plates to achieve a confluency of 70–80% at the end of the experiment and left to attach overnight before exposure. […] Post-exposure, the media were removed, and the AB assay was performed, with cells being incubated with a 200 µM solution of resazurin for 4 h. The obtained fluorescence was measured at λexcitation = 530/25; λemission = 590/35.
(§5) The experiments included three biological replicates, each one including three technical replicates. The negative control (NC) consisted of cells exposed to a cell culture medium containing 0.2% DMSO and was used for data normalization (100%).

[8] = CUPRAC (CUPric-Reducing Antioxidant Capacity) assay; type: biochemical; conditions: 30 min, 450 nm
Experimental: as §1
The electron-donating capacity of compounds was assessed using the CUPRAC (CUPric-Reducing Antioxidant Capacity) method. The protocol for this assay is a modification of the reports of Alam et al., Özyürek et al., and Apak et al.. Volumes of 250 µL of CuCl2 10 mM, 1 mL of ammonium acetate buffer 1 M, and 250 µL of 7.5 mM neocuproine in ethanol were mixed with 125 µL of samples and reference compound solutions (0.2 mM). The mixtures were shaken for 30 min in the dark; after that, their absorbance was determined spectrophotometrically at λ = 450 nm.

[9] = test system: normal human foreskin fibroblasts (BJ); assay: Alamar Blue cytotoxicity assay, BJ cells; type: cell-based; conditions: for IC50: Homo sapiens, Fibroblast, 48 h exposure, Alamar Blue
Experimental: as §2, §3, §4, §5

SMILES | melting point | TAC Eq Ascorbic Acid [1] | RP Eq Ascorbic Acid [2] | RP Eq Trolox [2] | ferrous ion chelation percent ([3]; 0.25 µM) | ferrous ion chelation percent ([3]; 0.5 µM) | ferrous ion chelation percent ([3]; 1 µM) | ferrous ion chelation percent ([3]; 1.5 µM) | ferrous ion chelation percent ([3]; 2 µM) | IC50 [4] | IC50 [5] | FRAP Eq Trolox [6] | IC50 [7] | Selectivity Index [7] | CUPRAC Eq Trolox [8] | IC50 [9] | decrease of viability of BJ cells ([9]; highest tested dose, 48 h)
Cc1cccc(-c2nc(-c3ccc(O)c(O)c3)cs2)c1 (as salt: hydrochloride) [Compound 3e, 4-(2-(m-tolyl)thiazol-4-yl)benzene-1,2-diol] | 196 °C |  |  |  |  |  |  |  |  |  |  |  |  |  |  |  | 
COc1cc(-c2nc(-c3ccc(O)c(O)c3)cs2)cc(OC)c1OC (as salt: hydrochloride) [Compound 3f, 4-(2-(3,4,5-trimethoxyphenyl)thiazol-4-yl)benzene-1,2-diol] | 219 °C |  |  |  |  |  |  |  |  |  |  |  |  |  |  |  | 
Oc1ccc(-c2csc(-c3ccncc3)n2)cc1O (as salt: hydrochloride) [Compound 3g, 4-(2-(pyridin-4-yl)thiazol-4-yl)benzene-1,2-diol] | 240 °C |  |  |  |  |  |  |  |  |  |  |  |  |  |  |  | 
Oc1ccc(-c2csc(-c3ccccn3)n2)cc1O (as salt: hydrochloride) [Compound 3h, 4-(2-(pyridin-2-yl)thiazol-4-yl)benzene-1,2-diol] | 230 °C |  |  |  |  |  |  |  |  |  |  |  |  |  |  |  | 
Oc1ccc(-c2csc(-c3csc(-c4ccccc4)n3)n2)cc1O (as salt: hydrochloride) [Compound 3i, 4-(2′-phenyl-[2,4′-bithiazol]-4-yl)benzene-1,2-diol] | 258 °C |  |  |  |  |  |  |  |  |  |  |  |  |  |  |  | 
Cc1ccc(-c2nc(-c3nc(-c4ccc(O)c(O)c4)cs3)cs2)cc1 (as salt: hydrochloride) [Compound 3j, 4-(2′-(p-tolyl)-[2,4′-bithiazol]-4-yl)benzene-1,2-diol] | 265 °C |  |  |  |  |  |  |  |  |  |  |  |  |  |  |  | 
Oc1ccc(-c2csc(-c3ccncc3)n2)cc1O [Compound 3g, 4-(2-(pyridin-4-yl)thiazol-4-yl)benzene-1,2-diol] |  | 0.64 Eq Ascorbic Acid | 2.04 Eq Ascorbic Acid | 1.69 Eq Trolox | - | - | - | - | - | 7.59 µM | 36.7 µM | 1.63 Eq Trolox | 7.34 µM | >13.62 | 3.60 Eq Trolox | > 100 µM | approximately 20%
Oc1ccc(-c2csc(-c3ccccn3)n2)cc1O [Compound 3h, 4-(2-(pyridin-2-yl)thiazol-4-yl)benzene-1,2-diol] |  | 1.34 Eq Ascorbic Acid | 2.06 Eq Ascorbic Acid | 1.71 Eq Trolox | - | - | - | - | - | 13.5 µM | 40.3 µM | 1.03 Eq Trolox | 13.1 µM | 5.84 | 2.13 Eq Trolox | 76.7 µM | 
Oc1ccc(-c2csc(-c3csc(-c4ccccc4)n3)n2)cc1O [Compound 3i, 4-(2′-phenyl-[2,4′-bithiazol]-4-yl)benzene-1,2-diol] |  | 0.51 Eq Ascorbic Acid | 1.63 Eq Ascorbic Acid | 1.35 Eq Trolox | - | - | - | - | - | 14.1 µM | 45.9 µM | 1.14 Eq Trolox | 5.18 µM | 5.67 | 1.84 Eq Trolox | 29.4 µM | 
Cc1ccc(-c2nc(-c3nc(-c4ccc(O)c(O)c4)cs3)cs2)cc1 [Compound 3j, 4-(2′-(p-tolyl)-[2,4′-bithiazol]-4-yl)benzene-1,2-diol] |  | 0.36 Eq Ascorbic Acid | 1.81 Eq Ascorbic Acid | 1.50 Eq Trolox | - | - | - | - | - | 17.7 µM | 49.6 µM | 1.06 Eq Trolox | 4.28 µM | 5.67 | 1.61 Eq Trolox | 24.2 µM | 
